Experimental findings from PubChem BioAssay AID1213 (NMMLSC, 2008) are described below.

Records with an inconclusive call do not appear. Activity calls are given as the source filed them.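 How the source made its calls: active means compound giving calcium release at least equal to the estrogen response, or cutting estrogen-driven calcium release by 60% or more; inconclusive means compound glowing brighter than the detergent maximum; inactive means the rest.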

In the first assay the target is G-protein coupled estrogen receptor 1 (Homo sapiens) (UniProt Q99527). Briefly: GPER-mediated calcium mobilization modulators – HL-60 cells, Indo-1 fluorescence, 10 µM, primary screen (AID 1213). The note with it: Indo-1 calcium mobilization, at 10 µM, stronger effect = higher value. (In general: Calcium assays in cells follow changes in intracellular calcium, usually with a dye or a luminescent sensor.)
In the case of `COc1ccc(C(=O)N/N=C(\C)c2ccc3c(c2)C2C=CCC2C(c2ccccc2)N3)cc1` (stereo not drawn), the calcium mobilization (agonist) was 50% (inactive).

In the case of `N=C1C(c2nc3ccccc3[nH]2)=C(O)CN1c1ccc(CC(=O)O)cc1`, the calcium mobilization (agonist) was 0% (inactive).

As for `CC(=O)c1ccc2c(c1)C1C=CCC1C(c1ccncc1)N2` (stereo not drawn), the calcium mobilization (agonist) is 100%.

In the case of `CC(=O)c1ccc2c(c1)C1C(Cl)C(Sc3ccccc3[N+](=O)[O-])CC1C(c1ccccc1)N2` (stereo not drawn), the calcium mobilization (agonist) is 0% (inactive).

In the case of `CC(=O)N1c2ccc(Cl)cc2C2C=CCC2C1c1cccc2ccccc12` (stereo not drawn), the calcium mobilization (agonist) was 100%.

Take `Fc1ccc2c(c1)[C@H]1OCC[C@H]1[C@@H](c1ccco1)N2`: the calcium mobilization (agonist) was 100%.

For the compound `O=C(O)c1ccc2c(c1)C1C(Cl)C(Sc3ccccc3[N+](=O)[O-])CC1C(c1cccc([N+](=O)[O-])c1)N2` (stereo not drawn), the calcium mobilization (agonist) is 0%.

As for `COc1ccc(OC)c(C2Nc3c(Cl)ccc(C(=O)O)c3C3C=CCC32)c1` (stereo not drawn), the calcium mobilization (agonist) is 50% (inactive).

As to `Cc1cc([N+](=O)[O-])c2c(c1C)C1C=CCC1C(c1ccccn1)N2` (stereo not drawn), the calcium mobilization (agonist) was 0% (inactive).

As for `Cc1cc(C)c2c(c1)NC(c1cc3c(cc1Br)OCO3)C1CC=CC21` (stereo not drawn), the calcium mobilization (agonist) was 50% (inactive).

With `O=C(O)C1Nc2c(C(=O)N3CCOCC3)cccc2C2C=CCC12` (stereo not drawn), the calcium mobilization (agonist) was 0% (inactive).

Take `Cc1cc(C(=O)Nc2sc3c(c2C#N)CCC3)no1`: the calcium mobilization (agonist) was 0% (inactive).

For `O=C(Cc1cccs1)Nc1ccc(S(=O)(=O)Nc2ncccn2)cc1`, the calcium mobilization (agonist) was 0% (inactive).

With `Oc1ccc(-c2nc3ccc4ccccc4c3c3c2CCC3)cc1O`, the calcium mobilization (agonist) is 0% (inactive).

Consider `CC(C)(C)NC(=O)c1ccc2c(c1)C1C3CCC(C3)C1C(c1ccccc1)N2` (stereo not drawn), for which the calcium mobilization (agonist) was 100%.

Regarding `CC(C)C1Nc2ccc(C(=O)O)cc2C2C=CCC21` (stereo not drawn), the calcium mobilization (agonist) was 0%.

`FC(F)(F)c1ccc2c(c1)C1C=CCC1C(c1ccncc1)N2` (stereo not drawn): the calcium mobilization (agonist) was 0% (inactive).

Turning to `CCn1nnc(NC(=O)CSc2ccc(Cl)cc2)n1`, the calcium mobilization (agonist) was 0% (inactive).

As for `O=C(O)C1Nc2c(O)cccc2C2C=CCC12` (stereo not drawn), the calcium mobilization (agonist) is 50% (inactive).

`Cc1cc(C)cc(OCC(=O)Nc2ccc(N3CCCC3)cc2)c1`: the calcium mobilization (agonist) is 0% (inactive).

Take `CC(C)c1ccc2c(c1)[C@H]1OCC[C@H]1[C@@H](c1cccs1)N2`: the calcium mobilization (agonist) is 0% (inactive).

`CCNC(=O)c1ccc2c(c1)C1C3CCC(C3)C1C(c1ccccc1)N2` (stereo not drawn): the calcium mobilization (agonist) is 100%.

As for `Cc1nnc(SCC(=O)NC(=O)NCc2ccco2)n1Cc1ccccc1`, the calcium mobilization (agonist) was 0% (inactive).

Regarding `O=C1NC(c2ccc(Br)cc2)Nc2sc3c(c21)CCC3` (stereo not drawn), the calcium mobilization (agonist) was 50% (inactive).

As to `O=C(O)c1ccc(Cl)c2c1C1C=CCC1C(c1ccccn1)N2` (stereo not drawn), the calcium mobilization (agonist) is 50% (inactive).

Take `COc1ccc(NC(=O)C(c2ccccc2)N(C)C(=O)c2ccc(=O)[nH]c2)cc1` (stereo not drawn): the calcium mobilization (agonist) is 0% (inactive).

For the compound `CCOC(=O)c1ccc2c(c1)C1C=CCC1C(C(=O)O)N2` (stereo not drawn), the calcium mobilization (agonist) is 0% (inactive).

For `CCCNC(=O)c1ccc2c(c1)C1C3CCC(C3)C1C(c1ccccc1)N2` (stereo not drawn), the calcium mobilization (agonist) was 100%.

Consider `O=C(OC1CCCCC1)c1ccc2c(c1)C1C=CCC1C(C(=O)O)N2` (stereo not drawn), for which the calcium mobilization (agonist) was 0% (inactive).

Regarding `C[C@]12CC[C@@H]3c4ccc(O)cc4C(=O)C[C@H]3[C@@H]1CC[C@@H]2O`, the calcium mobilization (agonist) is 0% (inactive).

In the case of `Cc1ccc2c(c1)[C@H]1OCC[C@H]1[C@@H](c1ccncc1)N2`, the calcium mobilization (agonist) is 0% (inactive).

Consider `COc1ccc2c(c1)C1C=CCC1C(c1cc3c(cc1Br)OCO3)N2` (stereo not drawn), for which the calcium mobilization (agonist) was 100%.

As to `Fc1ccc2c(c1)C1C=CCC1C(c1cc3c(cc1Br)OCO3)N2` (stereo not drawn), the calcium mobilization (agonist) was 100%.

As for `O=C(O)c1ccc2c(c1)[C@@H]1C=CC[C@@H]1[C@H](c1ccccn1)N2`, the calcium mobilization (agonist) is 0% (inactive).

For the compound `Cc1ccc2c(c1Cl)NC(C(=O)O)C1CC(Sc3ccccc3[N+](=O)[O-])C(Cl)C21` (stereo not drawn), the calcium mobilization (agonist) is 0%.

As to `CCc1ccc2c(c1)[C@H]1OCC[C@H]1[C@@H](c1cccs1)N2`, the calcium mobilization (agonist) is 50% (inactive).

In the case of `CCc1ccc(-c2nn(-c3ccccc3)cc2CSC(=N)N)cc1`, the calcium mobilization (agonist) was 50% (inactive).

Take `CCCCCCNC(=O)c1cc(-c2ccco2)nc2ccccc12`: the calcium mobilization (agonist) is 0% (inactive).

For `CCC(=O)Oc1ccc(C(CC)C(CC)c2ccc(OC(=O)CC)cc2)cc1` (stereo not drawn), the calcium mobilization (agonist) was 0% (inactive).

As to `NS(=O)(=O)c1ccc2c(c1)C1C=CCC1C(C1CC=CCC1)N2` (stereo not drawn), the calcium mobilization (agonist) was 0% (inactive).

Regarding `COc1cccc(NS(=O)(=O)c2ccc3c(c2)C2C=CCC2C(c2ccc(C(=O)O)cc2)N3)c1` (stereo not drawn), the calcium mobilization (agonist) was 0%.

For `COc1ccc(CNC(=O)c2cc(-c3cccs3)on2)cc1`, the calcium mobilization (agonist) is 0% (inactive).

Consider `CC(C)C1Nc2ccc(S(N)(=O)=O)cc2C2C=CCC21` (stereo not drawn), for which the calcium mobilization (agonist) is 0% (inactive).

In the case of `C[C@]12CC[C@@H]3c4ccc(O)cc4[C@@H](O)C[C@H]3[C@@H]1CC[C@@H]2O`, the calcium mobilization (agonist) was 0% (inactive).

With `O=C(COC(=O)CCC(=O)c1cccs1)NCc1ccco1`, the calcium mobilization (agonist) was 0% (inactive).

In the case of `Cc1ccc2c(c1C)NC(C(=O)O)C1CC=CC21` (stereo not drawn), the calcium mobilization (agonist) is 0%.

As for `O=C(O)c1ccc(NS(=O)(=O)c2ccc3c(c2)C2C=CCC2C(c2ccccc2F)N3)cc1` (stereo not drawn), the calcium mobilization (agonist) is 0% (inactive).

Take `CC(C)C1Nc2c(O)cc(Cl)c([N+](=O)[O-])c2C2C=CCC21` (stereo not drawn): the calcium mobilization (agonist) was 100%.

`COc1cccc(C2Nc3c(F)cc(Br)cc3C3C=CCC32)c1OC` (stereo not drawn): the calcium mobilization (agonist) was 0% (inactive).

With `O=C(c1cc2ncc(Br)cn2n1)N1CCN(C(=O)c2ccco2)CC1`, the calcium mobilization (agonist) is 0% (inactive).

Take `Cc1cc(C)c2c(c1)[C@@H]1C=CC[C@@H]1[C@H](c1ccc(S(=O)(=O)N3CCOCC3)cc1)N2`: the calcium mobilization (agonist) is 0%.

Consider `CCC(=O)Oc1ccc(/C(CC)=C(\CC)c2ccc(OC(=O)CC)cc2)cc1`, for which the calcium mobilization (agonist) was 0% (inactive).

As for `C[C@H]1CCC[C@@H](O)CCC/C=C/c2cc(O)cc(O)c2C(=O)O1`, the calcium mobilization (agonist) is 50% (inactive).

Consider `CC(=O)Nc1ccc(OC(=O)CC2SC(=O)NC2=O)cc1` (stereo not drawn), for which the calcium mobilization (agonist) was 0% (inactive).

For the compound `O=C(NC1CC1)c1ccc2c(c1)C1C3CCC(C3)C1C(c1ccccc1)N2` (stereo not drawn), the calcium mobilization (agonist) was 100%.

With `CC(=O)c1ccc2c(c1)C1C=CCC1C(C(=O)O)N2` (stereo not drawn), the calcium mobilization (agonist) was 0% (inactive).

Turning to `O=S(=O)(NCCc1csc(-c2cccnc2)n1)c1ccc(Cl)s1`, the calcium mobilization (agonist) was 100%.

On to `O=C(O)c1cc(Cl)c2c(c1)[C@@H]1C=CC[C@@H]1[C@H](c1ccc(S(=O)(=O)N3CCOCC3)cc1)N2`, for which the calcium mobilization (agonist) was 0% (inactive).

For the compound `CN(C)C(=O)c1ccc2c(c1)C1C3CCC(C3)C1C(c1ccccc1)N2` (stereo not drawn), the calcium mobilization (agonist) is 100%.

In the case of `CCCCOC(=O)c1c(C)oc2ccc(NS(=O)(=O)c3ccc4c5c(cccc35)C(=O)N4)cc12`, the calcium mobilization (agonist) was 0% (inactive).

In the case of `CCc1nc2sc3ccccc3c(=O)c2c(=O)n1Cc1ccco1`, the calcium mobilization (agonist) was 0% (inactive).

As to `Cn1ccnc1SCC(=O)Nc1ccc2nc(SCC(=O)NC3CC3)sc2c1`, the calcium mobilization (agonist) was 0% (inactive).

With `Cc1cc(-c2nn3c(-c4ccccc4)nnc3s2)c2ccccc2n1`, the calcium mobilization (agonist) is 0% (inactive).

For the compound `Oc1ccc(-c2nc(-c3ccc(O)c(O)c3)cs2)cc1`, the calcium mobilization (agonist) was 0% (inactive).

On to `Cc1ccc2c(c1)C1C=CCC1C(C(=O)O)N2` (stereo not drawn), for which the calcium mobilization (agonist) is 0% (inactive).

For the compound `Cc1nn(-c2ccccc2)c(/N=C/c2ccc(O)cc2)c1-c1ccccc1`, the calcium mobilization (agonist) is 0% (inactive).

For `O=C(Nc1cc(C(F)(F)F)ccc1N1CCOCC1)C1Cc2ccccc2CN1C(=O)c1ccco1` (stereo not drawn), the calcium mobilization (agonist) is 0% (inactive).

Regarding `CC(=O)c1ccc2c(c1)C1C=CCC1C(c1ccc(S(=O)(=O)N3CCOCC3)cc1)N2` (stereo not drawn), the calcium mobilization (agonist) is 100%.

With `Nc1ncnc2c1ncn2C1CCC(CO)C(O)C1` (stereo not drawn), the calcium mobilization (agonist) is 0% (inactive).

As to `COc1cc(C2Nc3c(F)cccc3C3C=CCC32)cc(Br)c1OC` (stereo not drawn), the calcium mobilization (agonist) is 0% (inactive).

In the case of `COc1cccc2c1NC(C(=O)O)C1CC=CC21` (stereo not drawn), the calcium mobilization (agonist) is 0% (inactive).

In the case of `CCCC1Nc2ccc(C(=O)O)cc2C2C=CCC12` (stereo not drawn), the calcium mobilization (agonist) was 0% (inactive).

Regarding `Cc1c(Cl)cccc1NS(=O)(=O)c1ccc2c(c1)C1C=CCC1C(c1ccc(C(=O)O)cc1)N2` (stereo not drawn), the calcium mobilization (agonist) is 0%.

In the case of `O=C(O)C1Nc2c(O)cc(Cl)c([N+](=O)[O-])c2C2C=CCC12` (stereo not drawn), the calcium mobilization (agonist) is 0% (inactive).

Staying with this assay, now noted: Indo-1 calcium mobilization, measured here: antagonist mode response, at 10 µM.
Take `COc1ccc(C(=O)N/N=C(\C)c2ccc3c(c2)C2C=CCC2C(c2ccccc2)N3)cc1` (stereo not drawn): the inhibition of estrogen-induced calcium mobilization (higher = more inhibition) amounted to 50%.

Consider `O=C(O)c1ccc2c(c1)C1C(Cl)C(Sc3ccccc3[N+](=O)[O-])CC1C(c1cccc([N+](=O)[O-])c1)N2` (stereo not drawn), for which the inhibition of estrogen-induced calcium mobilization (higher = more inhibition) stood at 100%.

As for `CC(C)C1Nc2ccc(C(=O)O)cc2C2C=CCC21` (stereo not drawn), the inhibition of estrogen-induced calcium mobilization (higher = more inhibition) turned out to be 100%.

On to `FC(F)(F)c1ccc2c(c1)C1C=CCC1C(c1ccncc1)N2` (stereo not drawn), for which the inhibition of estrogen-induced calcium mobilization (higher = more inhibition) worked out at 50%.

Take `O=C1NC(c2ccc(Br)cc2)Nc2sc3c(c21)CCC3` (stereo not drawn): the inhibition of estrogen-induced calcium mobilization (higher = more inhibition) is 50%.

As for `Cc1ccc2c(c1)[C@H]1OCC[C@H]1[C@@H](c1ccncc1)N2`, the inhibition of estrogen-induced calcium mobilization (higher = more inhibition) was 50%.

For `Cc1ccc2c(c1Cl)NC(C(=O)O)C1CC(Sc3ccccc3[N+](=O)[O-])C(Cl)C21` (stereo not drawn), the inhibition of estrogen-induced calcium mobilization (higher = more inhibition) stood at 100%.

For the compound `COc1cccc(NS(=O)(=O)c2ccc3c(c2)C2C=CCC2C(c2ccc(C(=O)O)cc2)N3)c1` (stereo not drawn), the inhibition of estrogen-induced calcium mobilization (higher = more inhibition) came out at 100%.

As to `Cc1ccc2c(c1C)NC(C(=O)O)C1CC=CC21` (stereo not drawn), the inhibition of estrogen-induced calcium mobilization (higher = more inhibition) is 100%.

`O=C(O)c1ccc(NS(=O)(=O)c2ccc3c(c2)C2C=CCC2C(c2ccccc2F)N3)cc1` (stereo not drawn): the inhibition of estrogen-induced calcium mobilization (higher = more inhibition) amounted to 50%.

Turning to `Cc1cc(C)c2c(c1)[C@@H]1C=CC[C@@H]1[C@H](c1ccc(S(=O)(=O)N3CCOCC3)cc1)N2`, the inhibition of estrogen-induced calcium mobilization (higher = more inhibition) is 100%.

Take `CCC(=O)Oc1ccc(/C(CC)=C(\CC)c2ccc(OC(=O)CC)cc2)cc1`: the inhibition of estrogen-induced calcium mobilization (higher = more inhibition) stood at 50%.

Consider `Cc1ccc2c(c1)C1C=CCC1C(C(=O)O)N2` (stereo not drawn), for which the inhibition of estrogen-induced calcium mobilization (higher = more inhibition) turned out to be 50%.

On to `Cc1c(Cl)cccc1NS(=O)(=O)c1ccc2c(c1)C1C=CCC1C(c1ccc(C(=O)O)cc1)N2` (stereo not drawn), for which the inhibition of estrogen-induced calcium mobilization (higher = more inhibition) was determined as 100%.
